# Source: US8030083B2, “Method of analyzing protein structural affinity relationship” (Eisai R & D Management Co., Ltd., priority 2004, dated 2011)
# Tests used:
# [1] = water solubility; type: physicochemical
# [2] = system: CDK; details: Knockaert et al.; cited from earlier work
# [3] = biological target: T1, mitochondrial malate dehydrogenase (mMDH) (Homo sapiens, UniProt P40926); details: Knockaert et al.; cited from earlier work
# T1 sequence (P40926 25-338): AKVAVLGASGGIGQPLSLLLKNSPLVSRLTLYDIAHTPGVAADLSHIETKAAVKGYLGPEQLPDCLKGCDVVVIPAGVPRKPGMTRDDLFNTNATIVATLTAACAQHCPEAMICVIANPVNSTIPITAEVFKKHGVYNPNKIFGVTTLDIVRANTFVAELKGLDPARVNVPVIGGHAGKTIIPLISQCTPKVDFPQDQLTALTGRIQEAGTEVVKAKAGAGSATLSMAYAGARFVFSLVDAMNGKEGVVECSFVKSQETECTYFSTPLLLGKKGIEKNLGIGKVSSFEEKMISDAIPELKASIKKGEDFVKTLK
Compound,water solubility [1],inhibition of CDK [2],inhibition of mMDH activity [3]
NS(=O)(=O)c1ccc(S(=O)(=O)Nc2cccc3c(Cl)c[nH]c23)cc1 [E7070],poor in water solubility,–,–
O=C1Cc2c([nH]c3ccccc23)-c2ccccc2N1 [paullone],–,inhibitor,inhibits mMDH activity with certainty
